Test results: US20070049593A1 (priority 2004, published 2007)
Where a name gives a salt, the structure may show the parent alone.

Molecular target: T1, HCV polymerase (Hepatitis C virus genotype 1b, UniProt P26663)
T1 construct: a region encoding NS5B (J Virol 1991 March, 65(3), 1105-13, 544 amino acids after deletion of 47 amino acids on the C-terminal); 6xHis (C); made in house; host or cells: Escherichia coli
Assay: biochemical
Set-up: species or system HCV BK strain
In short: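 His-tagged NS5B (BK strain, 47-aa C-terminal deletion, E. coli-expressed) at 0.5 μg/ml copied 5 μg/ml run-off RNA bearing the HCV 3′ UTR with 2 μM UTP plus [3H]UTP, 50 μM ATP/GTP, in pH 7.5 Tris with 5 mM MgCl2, 25 °C, 90 min. TCA-precipitated RNA was counted and IC50 calculated.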

T1 sequence (P26663 2420-2963): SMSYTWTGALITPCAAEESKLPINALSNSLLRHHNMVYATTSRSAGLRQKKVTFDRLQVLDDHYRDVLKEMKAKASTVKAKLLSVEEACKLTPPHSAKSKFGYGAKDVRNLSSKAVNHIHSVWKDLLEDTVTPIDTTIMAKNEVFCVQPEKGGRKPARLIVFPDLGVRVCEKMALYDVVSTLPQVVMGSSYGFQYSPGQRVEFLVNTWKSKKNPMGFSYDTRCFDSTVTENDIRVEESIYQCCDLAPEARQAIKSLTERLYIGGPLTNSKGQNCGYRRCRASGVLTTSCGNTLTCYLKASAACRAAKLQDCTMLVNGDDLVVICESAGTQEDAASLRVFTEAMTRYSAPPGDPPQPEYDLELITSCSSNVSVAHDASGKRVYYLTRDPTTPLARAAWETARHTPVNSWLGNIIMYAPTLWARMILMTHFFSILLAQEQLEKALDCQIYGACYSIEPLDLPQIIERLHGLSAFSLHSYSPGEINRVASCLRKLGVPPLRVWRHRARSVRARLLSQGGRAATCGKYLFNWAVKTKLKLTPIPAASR

| SMILES | IC50 [µM] |
| --- | --- |
| COCCC1CCCN(CCN2CCn3c(c(C4CCCCC4)c4ccc(C(=O)O)cc43)-c3ccc(Cl)cc32)C1 (centres unmarked) [Example 1-307, 3-chloro-13-cyclohexyl-5-{2-[3-(2-methoxyethyl)piperidin-1-yl]ethyl}-6,7-dihydro-5H-benzo[5,6][1,4]diazepino[7,1-a]indole-10-carboxylic acid dihydrochloride] | < 0.1 |
| COCCC1CCCN(CCN2CCn3c(c(C4CCCCC4)c4ccc(C(=O)O)cc43)-c3ccc(C)cc32)C1 (centres unmarked) [Example 1-308, 13-cyclohexyl-5-{2-[3-(2-methoxyethyl)piperidin-1-yl]ethyl}-3-methyl-6,7-dihydro-5H-benzo[5,6][1,4]diazepino[7,1-a]indole-10-carboxylic acid dihydrochloride] | < 0.1 |
| CN(C)CCN1CCn2c(c(C3CCCCC3)c3ccc(C(=O)O)cc32)-c2ccc(OCc3cc(S(C)(=O)=O)ccc3N3CCOCC3)cc21 [Example 1-309, 13-cyclohexyl-5-(2-dimethylaminoethyl)-3-[5-methanesulfonyl-2-(morpholin-4-yl)benzyloxy]-6,7-dihydro-5H-benzo[5,6][1,4]diazepino[7,1-a]indole-10-carboxylic acid trihydrochloride] | < 0.1 |
| COC(=O)Oc1ccc2c(c1)N(CCN(C)C)CCn1c-2c(C2CCCCC2)c2ccc(C(=O)O)cc21 [Example 1-310, 13-cyclohexyl-5-(2-dimethylaminoethyl)-3-methoxycarbonyloxy-6,7-dihydro-5H-benzo[5,6][1,4]diazepino[7,1-a]indole-10-carboxylic acid dihydrochloride] | < 0.1 |
| CN(C)CCN1CCn2c(c(C3CCCCC3)c3ccc(C(=O)O)cc32)-c2ccc(Oc3ccccc3)cc21 [Example 1-311, 13-cyclohexyl-5-(2-dimethylaminoethyl)-3-phenoxy-6,7-dihydro-5H-benzo[5,6][1,4]diazepino[7,1-a]indole-10-carboxylic acid dihydrochloride] | < 0.1 |
| CN1CCCCC1CCN1CCn2c(c(C3CCCCC3)c3ccc(C(=O)O)cc32)-c2ccc(Cl)cc21 (centres unmarked) [Example 1-312, 3-chloro-13-cyclohexyl-5-[2-(1-methylpiperidin-2-yl)ethyl]-6,7-dihydro-5H-benzo[5,6][1,4]diazepino[7,1-a]indole-10-carboxylic acid dihydrochloride] | < 0.1 |
| COCC1CCN(CCN2CCn3c(c(C4CCCCC4)c4ccc(C(=O)O)cc43)-c3ccc(Cl)cc32)CC1 [Example 1-314, 3-chloro-13-cyclohexyl-5-[2-(4-methoxymethylpiperidin-1-yl)ethyl]-6,7-dihydro-5H-benzo[5,6][1,4]diazepino[7,1-a]indole-10-carboxylic acid dihydrochloride] | < 0.1 |
| COCC1CCN(CCN2CCn3c(c(C4CCCCC4)c4ccc(C(=O)O)cc43)-c3ccc(C)cc32)CC1 [Example 1-315, 13-cyclohexyl-5-[2-(4-methoxymethylpiperidin-1-yl)ethyl]-3-methyl-6,7-dihydro-5H-benzo[5,6][1,4]diazepino[7,1-a]indole-10-carboxylic acid dihydrochloride] | < 0.1 |
| COC[C@H]1CCCN1CCN1CCn2c(c(C3CCCCC3)c3ccc(C(=O)O)cc32)-c2ccccc21 [Example 1-316, 13-cyclohexyl-5-[2-((R)-2-methoxymethylpyrrolidin-1-yl)ethyl]-6,7-dihydro-5H-benzo[5,6][1,4]diazepino[7,1-a]indole-10-carboxylic acid dihydrochloride] | < 0.1 |
| CCN1CCC(OCCN2CCn3c(c(C4CCCCC4)c4ccc(C(=O)O)cc43)-c3ccc(Cl)cc32)CC1 [Example 1-317, 3-chloro-13-cyclohexyl-5-[2-(1-ethylpiperidin-4-yloxy)ethyl]-6,7-dihydro-5H-benzo[5,6][1,4]diazepino[7,1-a]indole-10-carboxylic acid dihydrochloride] | < 0.1 |
| CC(C)N1CCC(OCCN2CCn3c(c(C4CCCCC4)c4ccc(C(=O)O)cc43)-c3ccc(Cl)cc32)CC1 [Example 1-318, 3-chloro-13-cyclohexyl-5-[2-(1-isopropylpiperidin-4-yloxy)ethyl]-6,7-dihydro-5H-benzo[5,6][1,4]diazepino[7,1-a]indole-10-carboxylic acid dihydrochloride] | < 0.1 |
| CN(CCN1CCn2c(c(C3CCCCC3)c3ccc(C(=O)O)cc32)-c2ccccc21)C1CCCC1 [Example 1-319, 13-cyclohexyl-5-[2-(N-cyclopentyl-N-methylamino)ethyl]-6,7-dihydro-5H-benzo[5,6][1,4]diazepino[7,1-a]indole-10-carboxylic acid] | < 0.1 |
| CC1CCCN(CCCN2CCn3c(c(C4CCCCC4)c4ccc(C(=O)O)cc43)-c3ccc(Cl)cc32)C1 (centres unmarked) [Example 1-320, 3-chloro-13-cyclohexyl-5-[3-(3-methylpiperidin-1-yl)propyl]-6,7-dihydro-5H-benzo[5,6][1,4]diazepino[7,1-a]indole-10-carboxylic acid] | < 0.1 |
| CN(CCN1CCn2c(c(C3CCCCC3)c3ccc(C(=O)O)cc32)-c2ccccc21)C1CCOC1 (centres unmarked) [Example 1-321, 13-cyclohexyl-5-{2-[N-methyl-N-(tetrahydrofuran-3-yl)amino]ethyl}-6,7-dihydro-5H-benzo[5,6][1,4]diazepino[7,1-a]indole-10-carboxylic acid] | < 0.1 |
| CC1CCCCN1CCCN1CCn2c(c(C3CCCCC3)c3ccc(C(=O)O)cc32)-c2ccc(Cl)cc21 (centres unmarked) [Example 1-322, 3-chloro-13-cyclohexyl-5-[3-(2-methylpiperidin-1-yl)propyl]-6,7-dihydro-5H-benzo[5,6][1,4]diazepino[7,1-a]indole-10-carboxylic acid] | < 0.1 |
| CCN1CCCCC1CCN1CCn2c(c(C3CCCCC3)c3ccc(C(=O)O)cc32)-c2ccc(Cl)cc21 (centres unmarked) [Example 1-323, 3-chloro-13-cyclohexyl-5-[2-(1-ethylpiperidin-2-yl)ethyl]-6,7-dihydro-5H-benzo[5,6][1,4]diazepino[7,1-a]indole-10-carboxylic acid dihydrochloride] | < 0.1 |
| CCOC1CCCN(CCN2CCn3c(c(C4CCCCC4)c4ccc(C(=O)O)cc43)-c3ccccc32)C1 (centres unmarked) [Example 1-324, 13-cyclohexyl-5-[2-(3-ethoxypiperidin-1-yl)ethyl]-6,7-dihydro-5H-benzo[5,6][1,4]diazepino[7,1-a]indole-10-carboxylic acid monohydrochloride] | < 0.1 |
| CCOC1CCCN(CCN2CCn3c(c(C4CCCCC4)c4ccc(C(=O)O)cc43)-c3ccc(C)cc32)C1 (centres unmarked) [Example 1-325, 13-cyclohexyl-5-[2-(3-ethoxypiperidin-1-yl)ethyl]-3-methyl-6,7-dihydro-5H-benzo[5,6][1,4]diazepino[7,1-a]indole-10-carboxylic acid monohydrochloride] | < 0.1 |
| CCOC1CCCN(CCN2CCn3c(c(C4CCCCC4)c4ccc(C(=O)O)cc43)-c3ccc(Cl)cc32)C1 (centres unmarked) [Example 1-326, 3-chloro-13-cyclohexyl-5-[2-(3-ethoxypiperidin-1-yl)ethyl]-6,7-dihydro-5H-benzo[5,6][1,4]diazepino[7,1-a]indole-10-carboxylic acid monohydrochloride] | < 0.1 |
| CCC1COCCN1CCN1CCn2c(c(C3CCCCC3)c3ccc(C(=O)O)cc32)-c2ccc(Cl)cc21 (centres unmarked) [Example 1-327, 3-chloro-13-cyclohexyl-5-[2-(3-ethylmorpholin-4-yl)ethyl]-6,7-dihydro-5H-benzo[5,6][1,4]diazepino[7,1-a]indole-10-carboxylic acid dihydrochloride] | < 0.1 |
| CC1CN(CCN2CCn3c(c(C4CCCCC4)c4ccc(C(=O)O)cc43)-c3ccc(Cl)cc32)CCO1 (centres unmarked) [Example 1-328, 3-chloro-13-cyclohexyl-5-[2-(2-methylmorpholin-4-yl)ethyl]-6,7-dihydro-5H-benzo[5,6][1,4]diazepino[7,1-a]indole-10-carboxylic acid dihydrochloride] | < 0.1 |
| Cc1ccc2c(c1)N(CCN1CCOC(C)C1)CCn1c-2c(C2CCCCC2)c2ccc(C(=O)O)cc21 (centres unmarked) [Example 1-329, 13-cyclohexyl-3-methyl-5-[2-(2-methylmorpholin-4-yl)ethyl]-6,7-dihydro-5H-benzo[5,6][1,4]diazepino[7,1-a]indole-10-carboxylic acid dihydrochloride] | < 0.1 |
| CNC(=O)N1CCN(CCN2CCn3c(c(C4CCCCC4)c4ccc(C(=O)O)cc43)-c3ccccc32)CC1 [Example 1-330, 13-cyclohexyl-5-[2-(4-methylcarbamoylpiperazin-1-yl)ethyl]-6,7-dihydro-5H-benzo[5,6][1,4]diazepino[7,1-a]indole-10-carboxylic acid dihydrochloride] | < 0.1 |
| CCCC1CCCN(CCN2CCn3c(c(C4CCCCC4)c4ccc(C(=O)O)cc43)-c3ccccc32)C1 (centres unmarked) [Example 1-331, 13-cyclohexyl-5-[2-(3-propylpiperidin-1-yl)ethyl]-6,7-dihydro-5H-benzo[5,6][1,4]diazepino[7,1-a]indole-10-carboxylic acid dihydrochloride] | < 0.1 |
| CCC1CCCCN1CCN1CCn2c(c(C3CCCCC3)c3ccc(C(=O)O)cc32)-c2ccccc21 (centres unmarked) [Example 1-332, 13-cyclohexyl-5-[2-(2-ethylpiperidin-1-yl)ethyl]-6,7-dihydro-5H-benzo[5,6][1,4]diazepino[7,1-a]indole-10-carboxylic acid dihydrochloride] | < 0.1 |
| CCC1CCCCN1CCN1CCn2c(c(C3CCCCC3)c3ccc(C(=O)O)cc32)-c2ccc(C)cc21 (centres unmarked) [Example 1-333, 13-cyclohexyl-5-[2-(2-ethylpiperidin-1-yl)ethyl]-3-methyl-6,7-dihydro-5H-benzo[5,6][1,4]diazepino[7,1-a]indole-10-carboxylic acid dihydrochloride] | < 0.1 |
